Eleven compounds from patent US6380251B1, “Cyclopentane heptan(ene)oic acid, 2-thiocarbamoyloxy and 2-carbamoyloxy compounds as therapeutic agents” (Allergan Sales, Inc., priority 2000, dated 2002) can be followed below.

One assay concerns PGF2α-sensitive receptor provisionally termed FPVASC. The experiment in a line: relaxation of smooth muscle of isolated rabbit jugular vein.
Details: not given
Type of assay: cell-based. How it is done: Activity at different prostanoid receptors was measured in vitro in isolated smooth muscle preparations. FP-activity was measured as contraction of the isolated feline iris sphincter. Activity was also measured as relaxation of smooth muscle of isolated rabbit jugular vein a preparation which appears to contain a unique PGF2α-sensitive receptor provisionally termed FPVASC. TP-vasoconstrictor activity was measured as contraction of rings of the isolated rat thoracic aorta.
Many examples also have pronounced activity at the FP receptor, provisionally termed FP associated with the vascular endothelium in the rabbit jugular vein preparation. Since such agents would be vasodilators they have potential in hypertension and any disease where tissue blood perfusion is compromised. Such indications include, but are not limited to, systemic hypertension, angina, stroke, retinal vascular diseases, claudication, Raynauds disease, diabetes, and pulmonary hypertension.
The EC50 is the concentration that produces a half-maximal response. The compound `O=C(O)CCC/C=C\C[C@H]1C(O)CC(O)[C@@H]1COC(=O)NCc1ccccc1` (stereo in doubt) [Example 6, 7-[2-Benzylcarbamoyloxymethyl-3,5-dihydroxycyclopentyl]hept-5-enoic acid] displayed an EC50 of 14200 nM.

Consider `O=C(O)CCC/C=C\C[C@H]1C(O)CC(O)[C@@H]1COC(=S)NCc1ccccc1` (stereo in doubt) [Example 9, 7-[2-Benzylthiocarbamoyloxymethyl-3,5-dihydroxycyclopentyl]hept-5-enoic acid], for which a half-maximal response (EC50) required 427 nM.

As to `O=C(O)CCC/C=C\C[C@H]1C(O)CC(O)[C@@H]1COC(=O)Nc1ccccc1` (stereo partly drawn) [Example 3, (Z)-7-((1R,2S,3R,5S)-3,5-Dihydroxy-2-phenzylcarbamoyloxymethylcyclopentyl)-hept-5-enoic acid], the EC50 worked out at 193000 nM.

For `O=C(O)CCC/C=C\C[C@@H]1[C@@H](COC(=O)NCCc2cccs2)[C@H](O)C[C@@H]1O` [Example 10, (Z)-7-[(1R,2S,3R,5S)-3,5-Dihydroxy-2-(2-thiophen-2-ylethylcarbamoyloxymethyl)-cyclopentyl]hept-5-enoic acid], the half-maximal effective concentration (EC50) came out at 32000 nM.

Take `CCCCNC(=S)OC[C@@H]1[C@@H](C/C=C\CCCC(=O)O)[C@@H](O)C[C@H]1O` [Example 11, (Z)-7-((1R,2S,3R,5S)-2-Butylthiocarbamoyloxymethyl-3,5-dihydroxycyclopentyl)-hept-5-enoic acid]: a half-maximal response (EC50) required 171 nM.

In the case of `O=C(O)CCC/C=C\C[C@@H]1[C@@H](COC(=S)NCc2cccc(Cl)c2)[C@H](O)C[C@@H]1O` [Example 12, (Z)-7-[(1R,2S,3R,5S)-2-(3-Chlorobenzylthiocarbamoyloxymethyl)-3,5-dihydroxycyclopentyl]hept-5-enoic acid], the EC50 was determined as 3 nM.

Regarding `O=C(O)CCC/C=C\C[C@@H]1[C@@H](COC(=O)NCc2cccc(C(F)(F)F)c2)[C@H](O)C[C@@H]1O` [Example 13, (Z)-7-[(1R,2S,3R,5S)-3,5-Dihydroxy-2-(3-trifluoromethylbenzylcarbamoyloxymethyl)cyclopentyl]hept-5-enoic acid], the EC50 worked out at 2840 nM.

The compound `O=C(O)CCC/C=C\C[C@@H]1[C@@H](COC(=S)NCc2cccc(C(F)(F)F)c2)[C@H](O)C[C@@H]1O` [Example 14, (Z)-7-[(1R,2S,3R,5S)-3,5-Dihydroxy-2-(3-trifluoromethylbenzylthiocarbamoyloxymethyl)cyclopentyl]hept-5-enoic acid] displayed a concentration for a half-maximal effect (EC50) of 178 nM.

In turn, `O=C(CCC/C=C\C[C@@H]1[C@@H](COC(=S)NCc2cccc(Cl)c2)[C@H](O)C[C@@H]1O)NCCO` [Example 18, (3-Chlorobenzyl)thiocarbamic acid O-{(1S,2R,3S,5R)-3,5-dihydroxy-2-[(Z)-6-(2-hydroxyethylcarbamoyl)hex-2-enyl]cyclopentylmethyl}ester] had an EC50 of 11000 nM.

`CCNC(=O)CCC/C=C\C[C@@H]1[C@@H](COC(=S)NCc2cccc(Cl)c2)[C@H](O)C[C@@H]1O` [Example 19, (3-Chlorobenzyl)thiocarbamic acid O-[(1S,2R,3S,5R)-2-((Z)-6-ethylcarbamoylhex-2-enyl)-3,5-dihydroxycyclopentylmethyl]ester] showed an EC50 of 2910 nM.

For `NC(=O)CCC/C=C\C[C@@H]1[C@@H](COC(=S)NCc2cccc(Cl)c2)[C@H](O)C[C@@H]1O` [Example 20, (3-Chlorobenzyl)thiocarbamic acid O-[(1S,2R,3S,5R)-2-((Z)-6-carbamoylhex-2-enyl)-3,5-dihydroxycyclopentylmethyl]ester], the response was half-maximal at 274 nM (EC50).

In another assay the test system is Dog intraocular pressure. In words: Dog intraocular pressure by applanation pneumatonometry. Type of assay: in vivo. To be noted: dogs, 25 μl to the ocular surface, contralateral eye vehicle, measured before and at 6 hours; FIGS. 3 and 4. How it is done: The compounds were prepared at the said concentrations in a vehicle comprising 0.1% polysorbate 80 and 10 mM TRIS base. Dogs were treated by administering 25 μl to the ocular surface, the contralateral eye received vehicle as a control. Intraocular pressure was measured by applanation pneumatonometry. Dog intraocular pressure was measured immediately before drug administration and at 6 hours thereafter.
As to `O=C(O)CCC/C=C\C[C@H]1C(O)CC(O)[C@@H]1COC(=S)NCc1ccccc1` (stereo in doubt) [Example 9, 7-[2-Benzylthiocarbamoyloxymethyl-3,5-dihydroxycyclopentyl]hept-5-enoic acid], the “effect on intraocular pressure” value is on record as “lowered intraocular pressure”.

As for `O=C(O)CCC/C=C\C[C@@H]1[C@@H](COC(=S)NCc2cccc(Cl)c2)[C@H](O)C[C@@H]1O` [Example 12, (Z)-7-[(1R,2S,3R,5S)-2-(3-Chlorobenzylthiocarbamoyloxymethyl)-3,5-dihydroxycyclopentyl]hept-5-enoic acid], the “effect on intraocular pressure” value is on record as “lowered intraocular pressure”.
